{"source": "patent US20160143917A1", "about": "“COMPOSITIONS AND METHODS FOR MODULATING HIV ACTIVATION” (priority 2013, published 2016)", "key": {"[1]": {"tested_on": "latently HIV provirus infected Jurkat (T-cell) clone 2D10 cells carrying a GFP-expressing provirus", "experiment": "Reactivation of latent HIV provirus (GFP expression) in 2D10 cells", "type": "cell-based, human", "settings": "for Un-stimulated: drug alone, no TNFα or SAHA, drug concentration (Fulvestrant 2.5 μM, Y-134 5 μM, Endoxifen 5 μM, MPP 5 μM, Tamoxifen 10 μM, Gossypol 5 μM, PPT 100 μM, Stilbestrol 5 μM); for +400 pg/ml TNFα drug: pre-treatment with agonist at row concentration plus 400 pg/ml TNFα; for 2 μM SAHA drug: pre-treatment with agonist at row concentration plus 2 μM SAHA; for 250 nM SAHA drug: drug at row concentration plus sub-optimum 250 nM SAHA; for +100 pg/ml TNFα drug: drug plus sub-optimum 100 pg/ml TNFα", "from_the_text": "Still other ESR-1 antagonists can be identified and screened for potential induction of latent HIV activation by using cell based assays described in Examples 1 and 2. For example to determine whether a composition or potential ESR-1 antagonist can induce HIV-1 provirus re-activation in latently infected primary T-cells (Th17), the ESR-1 antagonist can be administered to latently HIV provirus infected Jurkat (T-cell) clone 2D10 cells carrying a GFP-expressing provirus. The level of GFP expression can then be measured to determine activation. In another example, the ESR-1 antagonist can be administered to the latently infected primary T-cells (Th17) and phosphorylation of serine 175 of CDK9 can be measured by flow cytometry analysis. Along with CDK9 pSer175, expression of viral protein Nef can also measured.\nFIG. 2 illustrates the ESR1 antagonist Fulvestrant weakly stimulates 2D10 reactivation and sensitizes the cells to reactivation by sub-optimal concentrations of TNF-α. A. Unstimulated cells showing the low basal activation levels of approximately 2%. […] C. Activation of cells with 2.5 μM Fulvestrant.\nTo further validate involvement of ESR-1 in latency maintenance program, we have examined a series of antagonists and agonist as represented in Table 2 on 2D10. In all the cases it was observed that blocking of ESR-1 by antagonist either constitutively re-activate or sensitizes the pro-virus to sub-optimum dose of TNFα (100 pg/ml) and SAHA (250 nM)."}, "[2]": {"tested_on": "latently infected primary T-cells (Th17)", "experiment": "CDK9 pSer175 and Nef by flow cytometry in latently infected primary T-cells", "type": "cell-based", "protocol": "At the time of HIV-1 provirus re-activation one of the key marker is phosphorylation of serine 175 amino acid residue of CDK9 (CDK9 pSer175). To determine the status of HIV-1 provirus re-activation in latently infected primary T-cells (Th17) by ESR-1 antagonist Tamoxifen, phosphorylation of serine 175 of CDK9 was measured by flow cytometry analysis. Along with CDK9 pSer175, expression of viral protein Nef was also measured. […] Keeping that in mind, latently infected primary T-cell was treated with tamoxifen and SAHA alone or in combination where sub-optimum dose of (250 nM) was used (FIGS. 11 B, D, E). […] Therefore re-activation of latent provirus in Gossypol and/or SAHA treated primary T-cell was also examined (FIGS. 11 C-D)."}, "[3]": {"tested_on": "CHME5/HIV cells, a latently infected Fetal Microglia Cell line", "experiment": "Reactivation of latent HIV provirus (GFP expression) in microglial cells", "type": "cell-based", "protocol": "FIGS. 5(A-D) illustrate histograms showing GFP expression in CHME5/HIV cells, a latently infected Fetal Microglia Cell line carrying a GFP-expressing provirus, that are: (A) unstimulated; (B) administered a suboptimal dose of TNFα (10 ng/ml); (C) administered […] Fulvestrant; or (D) pre-treated with Fulvestrant and administered a suboptimal dose of TNFα.\nA. Unstimulated CHME5/HIV cells, a latently infected Fetal Microglia Cell line. Basal activation levels were 2.31%. B. Reactivation of CHME5/HIV cells with a suboptimal dose of TNFα (10 ng/ml) induced 13.96% of the proviruses. C. […] These observations indicate that pro-virus reactivation by modulating the ESR-1 is specific for T-cell."}, "[4]": {"tested_on": "Latently HIV-1 infected Th17 primary cells", "experiment": "Reactivation of latent provirus in primary Th17 cells, HIV Nef protein expression", "type": "cell-based", "settings": "single agent; untreated cells 2.54%", "from_the_text": "FIG. 3 illustrates latently infected primary T-cells are reactivated by the ESR1 antagonist, Fulvestrant (ICI.182780). […] B. Stimulation of the latently infected cells through the T-cell receptor using antibodies to CD3/CD28 re-activated 60.82% of the cells in the population. C. […] Method: Naive T-cells from healthy donors were activated using anti-CD3/[…] antibodies and polarized in the direction of primary Th-17 cells using a cocktail of cytokines. The exponentially growing cells were infected with HIV-1 virus containing d2EGFP fused to CD8a for surface expression of the reporter gene. The CD8a positive cells were purified using CD8a antibody conjugated magnetic beads. The HIV-1 infected cells were allowed to become quiescent by culturing in media containing minimal levels of IL2."}}, "note": "Where “and” joins values, the source holds several entries; their conditions need not be identical. Identical values can stand only once.", "data": [{"molecule": "CCCc1c(-c2ccc(O)cc2)nn(-c2ccc(O)cc2)c1-c1ccc(O)cc1", "note": "[PPT, 4,4′,4″-(4-Propyl-[1H]-pyrazole-1,3,5-triyl)trisphenol]", "values": [{"measurement": "reactivation of latently infected cells (GFP)", "setting": "[1]; 100 μM PPT alone", "result": "not reactivated"}, {"measurement": "Un-stimulated", "setting": "[1]", "result": 3.57, "unit": "%"}, {"measurement": "activation of the cells (GFP)", "setting": "[1]; pre-treatment with PPT, then SAHA (1 μM)", "result": 8.77, "unit": "%"}, {"measurement": "+400 pg/ml TNFα drug", "setting": "[1]", "result": 13.41, "unit": "%"}, {"measurement": "2 μM SAHA drug", "setting": "[1]", "result": 6.76, "unit": "%"}, {"measurement": "reactivation induced by TNFα (GFP)", "setting": "[1]; pretreatment with PPT for one hour, then 400 pg/ml TNFα", "result": 13.41, "unit": "%"}]}, {"molecule": "Cc1c(-c2ccc(O)cc2)nn(-c2ccc(O)cc2)c1-c1ccc(OCCN2CCCCC2)cc1", "note": "[MPP]", "values": [{"measurement": "Un-stimulated", "setting": "[1]", "result": 14.49, "unit": "%"}, {"measurement": "250 nM SAHA drug", "setting": "[1]", "result": 31.14, "unit": "%"}, {"measurement": "+100 pg/ml TNFα drug", "setting": "[1]", "result": 39.60, "unit": "%"}]}, {"molecule": "O=C(CCCCCCC(=O)Nc1ccccc1)NO", "note": "[SAHA, suberoylanilide hydroxamic acid]", "values": [{"measurement": "cells induced (GFP)", "setting": "[1]; 250 nM SAHA alone (sub-optimum)", "result": 5.25, "unit": "%"}, {"measurement": "re-activation of the population (GFP)", "setting": "[1]; 1 μM SAHA alone", "result": 65.87, "unit": "%"}, {"measurement": "250 nM SAHA", "setting": "[1]; Control (2D10), 250 nM SAHA alone, no ESR-1 drug", "result": 14.34, "unit": "%"}, {"measurement": "2 μM SAHA", "setting": "[1]; Control (2D10), 2 μM SAHA alone, no ESR-1 drug", "result": "65.43% and 71.83%"}]}, {"molecule": "C[C@]12CC[C@@H]3c4ccc(O)cc4CC[C@H]3[C@@H]1CC[C@@H]2O", "note": "[β-estradiol]", "values": [{"measurement": "stimulation of latent HIV proviruses (GFP)", "setting": "[1]; estrogen-depleted media, 2 ng/ml β-estradiol alone", "result": "does not stimulate latent HIV proviruses"}, {"measurement": "responsiveness to TNFα (GFP)", "setting": "[1]; estrogen-depleted media, 2 ng/ml β-estradiol plus 400 pg/ml TNFα", "result": "did not enhance responsiveness"}]}, {"molecule": "CC/C(=C(\\c1ccccc1)c1ccc(OCCN(C)C)cc1)c1ccccc1", "note": "[Tamoxifen]", "values": [{"measurement": "re-activation of latent provirus (CDK9 pSer175 and Nef expression)", "setting": "[2]; drug alone", "result": "failed to re-activate latent provirus"}, {"measurement": "re-activation of latent provirus (CDK9 pSer175 and Nef expression)", "setting": "[2]; drug combined with sub-optimum SAHA (250 nM)", "result": "elevated expression of both CDK9 pSer175 and Nef"}, {"measurement": "Un-stimulated", "setting": "[1]", "result": 12.09, "unit": "%"}, {"measurement": "250 nM SAHA drug", "setting": "[1]", "result": 22.50, "unit": "%"}, {"measurement": "+100 pg/ml TNFα drug", "setting": "[1]", "result": 33.03, "unit": "%"}]}, {"molecule": "TNFα", "values": [{"measurement": "proviruses induced (GFP)", "setting": "[3]; 10 ng/ml TNFα alone (suboptimal), basal 2.31%", "result": 13.96, "unit": "%"}, {"measurement": "re-activation of latent provirus (GFP)", "setting": "[1]; 100 pg/ml TNFα alone (sub-optimal)", "result": 15.95, "unit": "%"}, {"measurement": "proviral re-activation (GFP)", "setting": "[1]; 400 pg/ml TNFα alone", "result": 70.88, "unit": "%"}, {"measurement": "+100 pg/ml TNFα", "setting": "[1]; Control (2D10), 100 pg/ml TNFα alone, no ESR-1 drug", "result": 16.15, "unit": "%"}, {"measurement": "400 pg/ml TNFα", "setting": "[1]; Control (2D10), 400 pg/ml TNFα alone, no ESR-1 drug", "result": "70.88% and 88.12%"}, {"measurement": "proviruses stimulated (GFP)", "setting": "[1]; phenol-red free media, 10% charcoal-stripped FBS (estrogen-depleted), 400 pg/ml TNFα alone", "result": 79.59, "unit": "%"}]}, {"molecule": "CC/C(=C(\\c1ccc(O)cc1)c1ccc(OCCNC)cc1)c1ccccc1", "note": "[Endoxifen]", "values": [{"measurement": "Un-stimulated", "setting": "[1]", "result": 9.70, "unit": "%"}, {"measurement": "250 nM SAHA drug", "setting": "[1]", "result": 26.63, "unit": "%"}, {"measurement": "+100 pg/ml TNFα drug", "setting": "[1]", "result": 29.31, "unit": "%"}]}, {"molecule": "C[C@]12CC[C@@H]3c4ccc(O)cc4C[C@@H](CCCCCCCCC[S+]([O-])CCCC(F)(F)C(F)(F)F)[C@H]3[C@@H]1CC[C@@H]2O", "note": "(stereo partly shown) [Fulvestrant]", "values": [{"measurement": "stimulation of CHME5/HIV cells (GFP)", "setting": "[3]; 2.5 mM Fulvestrant alone", "result": "did not stimulated CHME5/HIV cells beyond basal levels"}, {"measurement": "sensitization towards TNFα stimulation (GFP)", "setting": "[3]; pre-treatment with Fulvestrant, then suboptimal TNFα (10 ng/ml)", "result": "did not sensitize the latent population towards TNFα stimulation"}, {"measurement": "latent proviruses/cells re-activated, measured by expression of the HIV Nef protein", "setting": "[4]", "result": 25.27, "unit": "%"}, {"measurement": "reactivation of latent provirus (GFP)", "setting": "[1]; 2.5 μM Fulvestrant alone", "result": "small but significant reactivation"}, {"measurement": "GFP levels", "setting": "[1]; 50 μM Fulvestrant alone", "result": 8.05, "unit": "%"}, {"measurement": "Un-stimulated", "setting": "[1]", "result": 2.68, "unit": "%"}, {"measurement": "250 nM SAHA drug", "setting": "[1]", "result": 17.78, "unit": "%"}, {"measurement": "+100 pg/ml TNFα drug", "setting": "[1]", "result": 41.01, "unit": "%"}, {"measurement": "reactivation of latent population (GFP)", "setting": "[1]; one hour pre-treatment with Fulvestrant, then 100 pg/ml TNFα", "result": 41.01, "unit": "%"}, {"measurement": "reactivation of pro-virus (GFP)", "setting": "[1]; pre-treatment with Fulvestrant (50 μM) for one hour, then 250 nM SAHA", "result": 18.80, "unit": "%"}]}, {"molecule": "CC/C(=C(/CC)c1ccc(O)cc1)c1ccc(O)cc1", "note": "[Stilbestrol]", "values": [{"measurement": "Un-stimulated", "setting": "[1]", "result": 6.20, "unit": "%"}, {"measurement": "+400 pg/ml TNFα drug", "setting": "[1]", "result": 33.70, "unit": "%"}, {"measurement": "2 μM SAHA drug", "setting": "[1]", "result": 4.34, "unit": "%"}, {"measurement": "effect of agonist pre-treatment on provirus re-activation", "setting": "[1]; pre-treatment, optimum dose of TNFα (400 pg/ml) and SAHA (2 μM)", "result": "block the re-activation of latent pro-virus"}]}, {"molecule": "Cc1cc2c(C(C)C)c(O)c(O)c(C=O)c2c(O)c1-c1c(C)cc2c(C(C)C)c(O)c(O)c(C=O)c2c1O", "note": "[Gossypol]", "values": [{"measurement": "pro-virus re-activation (GFP)", "setting": "[3]; Gossypol alone", "result": 1.60, "unit": "%"}, {"measurement": "re-activation of pro-virus (GFP)", "setting": "[3]; Gossypol combined with 10 ng/ml TNFα (sub-optimum)", "result": 10.24, "unit": "%"}, {"measurement": "proviral re-activation (GFP)", "setting": "[1]; 5 μM Gossypol alone", "result": 30.58, "unit": "%"}, {"measurement": "re-activation (GFP)", "setting": "[1]; 5 μM Gossypol combined with 100 pg/ml TNFα (sub-optimum)", "result": 60.15, "unit": "%"}, {"measurement": "Un-stimulated", "setting": "[1]", "result": 30.58, "unit": "%"}, {"measurement": "+100 pg/ml TNFα drug", "setting": "[1]", "result": 60.15, "unit": "%"}]}]}
